# Experimental data: patent US20260069641A1, “GRAM-NEGATIVE BACTERIA FOR USE IN THE PREVENTION AND TREATMENT OF DISEASE IN POULTRY” (priority 2024, published 2026)
# System: Eimeria acervulina, Eimeria maxima, and Eimeria tenella
# Test: Second study: floor-pen broilers, cocci-challenge plus built-up litter, dried bacterial biomass in feed, 28 days
# Assay type: in vivo, broiler chickens
# Conditions: column F of the chart
compound,measurement,value
"CC[C@@]1([C@@H]2O[C@@H]([C@H]3O[C@@](O)(CO)[C@H](C)C[C@@H]3C)C[C@@H]2C)CC[C@H]([C@]2(C)CC[C@]3(C[C@H](O)[C@@H](C)[C@@H]([C@@H](C)[C@@H](OC)[C@H](C)C(=O)O)O3)O2)O1 [Coban, Monensin]",Lesion Score Ileum Day 28,0.325
